Several values for one entry are separate records, joined by “and”; a condition that tells them apart may be missing. Equal entries are not always repeated.
Key:
C57/B16J mice = assay: Dose-response experiments: cumulative food intake after intraperitoneal injection in fasted mice; conditions: food removed the day before
Experimental: Cumulative food intake±SEM was calculated and analyzed using Prizm. […] From the curve, the EC50 at each time point for each drug was determined.

POMC neurons [1] = assay: Electrophysiology: cell-attached recordings of action potential frequency of POMC-EGFP neurons in hypothalamic (ARC) slices; conditions: applied to the bath for 3 min
Experimental: Under ultraviolet (450-480 nm) excitation, POMC neurons were clearly distinguished from adjacent, non-fluorescent neurons visualized under infrared optics.
200 μm thick coronal slices were cut from the ARC of four-week old male POMC-EGFP mice. […] Recordings were made in Krebs at 35° C. Slices were visualized on an Axioskop FS2 plus (Zeiss) through standard infra red optics and using epifluorescence through a FITC (longpass) filter set. […] Cell-attached recordings were made from fluorescent neurons using an Axopatch 200B amplifier (Axon Instruments) and Clampex 8 (Axon Instruments). Action potentials frequencies were determined using an event detection program (Mini Analysis; Synaptosoft Inc., Decatur, Ga.). Drugs were applied to the bath for 3 min.
Data were analyzed by determining the average firing rate for 500 sec prior to drug addition, and analyzing treatments relative to this frequency (that is, firing rates were normalized to the pre-treatment frequency).

POMC neurons [2] = conditions: Heisler et al., Science 297(5581):609-11 (2002); cited from earlier work
[3] = in vivo; cited from earlier work

SMILES	Cumulative food intake expressed as a proportion of the food intake in saline treated animals, MEAN (C57/B16J mice; Hour 1 post-injection)	Cumulative food intake expressed as a proportion of the food intake in saline treated animals, MEAN (C57/B16J mice; Hour 2 post-injection)	Cumulative food intake expressed as a proportion of the food intake in saline treated animals, MEAN (C57/B16J mice; Hour 4 post-injection)	Cumulative food intake expressed as a proportion of the food intake in saline treated animals, MEAN (C57/B16J mice; Hour 8 post-injection)	Cumulative food intake expressed as a proportion of the food intake in saline treated animals, MEAN (C57/B16J mice; headed Hour 8 a second time)	Mean effect of the drug alone on firing rate, normalized to the pre-treatment frequency (POMC neurons [1])	Effect of fenfluramine alone (POMC neurons [2]) [%]	Physiological half life [3]
Cc1c(C(=O)NN2CCCCC2)nn(-c2ccc(Cl)cc2Cl)c1-c1ccc(I)cc1 [AM 251, N-(piperidin-1-yl)-1-(2,4-dichlorophenyl)-5-(4-iodophenyl)-4-methyl-1H-pyrazole-3-carboxamide]	0.97	0.85	0.88	0.90	0.99	–	–	–
CC(NC(C)(C)C)C(=O)c1cccc(Cl)c1 (centres unmarked) [Bupropion, bupropion]	0.32	0.64	0.97	0.96	0.99	–	–	–
NCCc1ccc(O)c(O)c1 [Dopamine]	–	–	–	–	–	11X (n = 9)	–	–
CCNC(C)Cc1cccc(C(F)(F)F)c1 (centres unmarked) [Fenfluramine, fenfluramine]	–	–	–	–	–	2X increase (n = 6)	200	–
CNCCC(Oc1ccc(C(F)(F)F)cc1)c1ccccc1 (centres unmarked) [Fluoxetine, fluoxetine]	0.36	0.57	0.68	0.76	1.05	3X (n = 1)	–	about 9 hours
COCCCC/C(=N\OCCN)c1ccc(C(F)(F)F)cc1 [Fluvoxamine, fluvoxamine]	0.77	0.85	0.95	0.91	0.92	–	–	–
C=C1CC[C@@]2(O)[C@H]3Cc4ccc(O)c5c4[C@@]2(CCN3CC2CC2)[C@H]1O5 [Nalmefene, nalmefene]	0.0083	0.11	0.57	0.81	0.98	–	–	–
O=C1CC[C@@]2(O)[C@H]3Cc4ccc(O)c5c4[C@@]2(CCN3CC2CC2)[C@H]1O5 [Naltrexone, naltrexone]	0.41 and 0.30	0.77 and 0.56	0.99 and 0.83	1.1 and 0.98	0.98 and 1.01	–	–	–

From patent US7375111B2, “Compositions for affecting weight loss” (priority 2003, dated 2008)
